The subject of assay [1] is stored human platelets in thrombocytopenic CD-1 outbred mice. The experiment in a line: Platelet storage vs platelet function in a mouse model of thrombocytopenia (tail vein bleeding, blotter weight). The class given is in vivo. The following applies: for Weight of blood after tail vein cut, single animals: 1% PEG-400 in PBS, platelets stored at room temp. The procedure:
Fresh human platelets were obtained from the blood bank. These were pooled, mixed and divided twice to give 4 (new) platelet bags with 65 ml (+/−5 ml) in each. Next sterile PBS/PEG mixtures were made by adding filter sterilized PEG-400 (30% in PBS) serially diluting 1:4. (14 ml PBS+6 ml of PEG400=30% PEG, serially 1:4 diluted with PBS to give 7.5% PEG400, and 1.9% PEG400). Then, 10 ml of PBS or PBS/PEG was added into each platelet bag as follows: 10 ml PBS is 0 control=A; 10 ml of 1.9 is 0.25% peg final in platelets (a low dose tolerated by whole animal see below)=B; 10 ml of 7.5% gives 1% PEG-400 final (the max PEG400 dose tolerated by whole animal see below), =C; 10 ml of 30% gives 4% about 4 times the max dose tolerated in rhesus monkeys. Units were held at room temp 70 cycles/min, 1 inch stroke). The platelet units were confirmed to be negative for bacterial growth using 3 ml the platelet suspensions in Bactec blood culture bottles at 72 hr.
CD-1 outbred mice were obtained from Harlan Laboratories. All animals were pretreated with a 0.5 ml IP dose of 185 ug/mouse of filter sterilized fresh acetylsalicylic acid (aspirin) in PBS buffer. Fresh aspirin was used. Salicylate is the active metabolite responsible for most anti-inflammatory and analgesic effects; however, acetylsalicylate is the active moiety for the antiplatelet-aggregation effect and is rapidly hydrolyzed in water. On the following day all mice were given 3 U (heparin equivalents)/animal Lovenox (Enoxaparin Sodium Injection). After a 2 hr period for Lovenox to take full effect, the animals were given 100 ul platelets by IV tail vein injection, the platelets were allowed to circulate […] and the tail vein cut 1 cm from the tip with a new scapula for each animal. Bleeding was measured by collecting drops of blood for exactly 5 min on pre-weighed blotter paper Whatmen-40. The blotters were then weighed and these weights were compared using unpaired t test statistics. Platelets having an excessive amount of RBC in the units were sedimented under gravity in a 50 ml tube for 30 min and only the top 5 ml was harvested into a second 50 ml tube used for injection.)
Briefly, the animal model experiments were performed as follows. Fresh human platelets were obtained from a blood bank, consisting of 3 ABO ‘O’ units and 2 ABO ‘A’ units. These were pooled, mixed and divided twice to give 4 (new) platelet bags with 75 ml (+/−5 ml) in each. Next sterile PBS/PEG mixtures were made by adding filter sterilized PEG-400 (30% in PBS) serially diluting 1:4. (14 ml PBS+6 ml of PEG=30% PEG, serial ¼ diluted with PBS to give 7.5% PEG, and 1.9% PEG400). 10 ml of PBS or PBS/PEG was then added to each platelet bag as follows. […] Units were held at room temp 140 cycles/min, 0.5 inch stroke). The platelet units were confirmed as negative for bacterial growth using 3 ml in Bactec blood culture bottles at 72 hr.
CD-1 outbred mice were obtained from Harlan Laboratories. All animals were pretreated with a 0.5 ml IP dose of 185 μg/mouse of filter sterilized fresh acetylsalicylic acid in PBS buffer. On the following day all mice were given 3 U (heparin equivalents)/animal Lovenox. (Note: Aspirin was fresh. Salicylate is the active metabolite responsible for most anti-inflammatory and analgesic effects; however, acetylsalicylate is the active moiety for the antiplatelet-aggregation effect and is rapidly hydrolyzed in water. After a 2 hr period for Lovenox effect the animals were given 100 ul platelets by IV tail vein injection, the platelets were allowed to circulate 30 min and the tail vein cut 1 cm from tip with a new scapula for each animal. Bleeding was measured by collecting drops of blood for exactly 5 min on pre-weighed blotter paper Whatmen-40. The blotters were then weighed and these weights were compared using unpaired t test statistics. […]

For assay [2], the system named is macrophage like cell line U937. The assay is described as follows: Platelet binding to the macrophage like cell line U937 (Experiment E). The class given is cell-based, human. The following applies: 2% PEG-400, 5° C. overnight. The procedure: U937 is a cell line derived from a patient with Acute Myelo-Monocytic Leukemia. […] In this binding experiment 5 day old platelets from the blood bank are held in a standard storage media referred to as ACD on a flat-bed shaker under standard conditions of rotation. ‘ACD’ contains […], Sodium Citrate, and Dextrose. These platelets were split into two conditions, control and 2%/0 PEG-400, in a 12 well plate format with a final volume of 100 ul per well. All wells were incubated overnight at 5° C. All wells where then stained with fluorescein Diacetate (Sigma product F7378). This agent was protected from light and 1 mg was dissolved in 10 ml acetone and stored at −70° C. FDA was diluted […] in PBS immediately prior to use (Miyamoto el al., 2000.) All platelet wells received 2.5 ug final per well of fluorescein diacetate (FA) contained in 50 ul PBS. After 1 hr at room temp a further 100 ul of PBS was added and the 12 well plates were centrifuged at 3000 g for 20 min at RT. 150 ul excess fluid was carefully removed from all wells and discarded. Platelets were gently suspended. […] Wells were examined and photographed with an inverted fluorescence microscope. […]
Control conditions had standard 75 ul of ACD suspended platelets, plus 25 μl PBS in the control wells. […] Wells were examined with an inverted fluorescence microscope.

Values joined by “and” are separate entries in the source; they are usually repeats but may differ in a detail not shown here. Equal values may be shown once.

The results in this text go back to patent US10897891B2, “Compositions and methods for prolonged cell storage” (Board of Regents, The University of Texas System, priority 2015, dated 2021).

In the case of Polyethylene glycol [PEG-400], the “Weight of blood after tail vein cut, mean (X) of combined data” value in assay [1] (1% PEG-400, room temp. storage 11-13 days, N = 9) is listed as “X = 0.043 grams”. The “activity of stored platelets” value in assay [1] (1% PEG-400, room temp. storage, day 11-13) is recorded as “active”. In assay [1] (1% PEG-400, room temp., combined day 11 and day 13 data), the “clotting vs standard platelet storage condition” value was “significantly more clotting”. The “Weight of blood after tail vein cut, single animals” value in assay [1] (Mar. 11, 2014 group) is “.06 grams and .04 grams and .05 grams”; in assay [1] (Mar. 13, 2014 group), “.05 grams and .03 grams and .02 grams”; in assay [1] (May 23, 2014 group) it was “.04 grams (2×) and .06 grams”. Moreover, the “adsorption of cold stored platelets to U937 cells” value is “substantially block adsorption of cold stored platelets to macrophage like cells” in assay [2] and “only a few attached strongly fluorescent platelets” in assay [2] (listed as PEG).
